Molecular target: T1, Deoxyhypusine hydroxylase (DOHH) (Plasmodium vivax, UniProt A5JZ19)
T1 construct: full-length ORF of 346 amino acids, histidine-tagged, expressed in E. coli BL21(DE3) (pET-28a)
T1 sequence (A5JZ19 1-346): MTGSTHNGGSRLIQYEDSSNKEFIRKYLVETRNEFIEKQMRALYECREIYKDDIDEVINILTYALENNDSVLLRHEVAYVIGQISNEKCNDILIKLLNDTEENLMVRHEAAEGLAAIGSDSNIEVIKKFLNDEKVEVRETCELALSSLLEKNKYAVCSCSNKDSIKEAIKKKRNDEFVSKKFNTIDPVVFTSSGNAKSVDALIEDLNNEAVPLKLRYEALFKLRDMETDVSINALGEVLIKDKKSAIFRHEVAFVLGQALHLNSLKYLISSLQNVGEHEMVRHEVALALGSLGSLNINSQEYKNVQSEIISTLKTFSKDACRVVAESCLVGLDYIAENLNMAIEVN
Assay: recombinant DOHH activity assay with eIF-5A(Dhp) substrate; radioactive filter assay and GC/MS, dose-response
Type: biochemical

In the case of `CC(c1cc2ccccc2s1)N(O)C(N)=O` (racemic) [zileuton, (RS)-1-(1-Benzothiophen-2-ylethyl)-1-hydroxyurea], the IC50 is reported as 12,5 nmol.

From paper PMC3591309, “Deoxyhypusine Hydroxylase from Plasmodium vivax, the Neglected Human Malaria Parasite: Molecular Cloning, Expression and Specific Inhibition by the 5-LOX Inhibitor Zileuton” (PLoS ONE, 2013)
